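Values below derive from 48-hour exposures of cells grown in 96-well plates, with endpoints linearly interpolated between the two concentrations bracketing the appropriate inhibition level. TGI denotes the concentration required for complete inhibition of growth.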
tested on: SF-268 CNS; experiment: NCI anticancer screen, dose series, 48 h

| Compound | TGI |
| --- | --- |
| O=C1C=CC(=O)c2c1ccc1c3ccccc3n(CCCCCn3c4ccccc4c4ccc5c(c43)C(=O)C=CC5=O)c21 | 32.7 µM |
| C=C(Cl)C(=CCl)CCC(Br)C(C)(C)Cl (mixture of isomers) | > 10 µM |
| O=C1C2SC34c5c2c2ccccc2n5CCC3CCCN14 (configuration not stated) | > 100 µM |
| CC(=O)N(C(C)=O)c1ncc(-n2nc(-c3ccccc3)cc2-c2ccccc2)c(-c2ccccc2)n1 | > 10 µM |
| CN1C(=O)c2ccccc2OC12C=Cc1c(ccc3ccccc13)O2 (configuration not stated) | 31.4 µM |
| CC(=O)Nc1sc(Br)cc1S(=O)(=O)c1ccc(Cl)cc1 | > 100 µM |
| O=C1Sc2cc3ccccc3cc2C(=O)Sc2ccc(Br)cc21 | 23.2 µM |
| O=C(/C=C/c1ccccc1)Oc1cccc(O)c1 | 62.6 µM |
| CC(C)NC(=O)OCc1c(COC(=O)NC(C)C)c(-c2cc[n+](COC(=O)C3CC3)cc2)n2c1CCC2 | > 100 µM |
| COC(=O)C1=C(C(=O)OC)N(c2ccc(OC)cc2[N+](=O)[O-])C(c2ccc(C)cc2)=CC1c1ccc(OC)cc1OC (configuration not stated) | > 100 µM |
| O=c1[nH]nnc2c1sc1ncccc12 | > 100 µM |
| Cc1ccc(C2SCC(=O)N2c2ccc(-n3c(-c4ccccc4)nc4ccccc4c3=O)cc2)cc1 (configuration not stated) | > 100 µM |
| C/C=C/C(CC(O)(C(F)(F)F)C(F)(F)F)=N/NC(N)=S | > 10 µM |
| Fc1ccc2c(c1)nc1n2C(c2c(Cl)cccc2Cl)SC1 (configuration not stated) | 29.6 µM |
| CC(C)C1=CC23CCC4C(C)(C(=O)O)CCCC4(C)C2CC1C1C(=O)N(c2ccc(Cc4ccc(N5C(=O)C6C7CC8C9(C)CCCC(C)(C(=O)O)C9CCC8(C=C7C(C)C)C6C5=O)cc4)cc2)C(=O)C13 (configuration not stated) | 27.4 µM |
| NC(N)=NS(=O)(=O)c1ccc(NNc2c3ccccc3nc3c(C(=O)Nc4ccc(S(=O)(=O)Nc5ncccn5)cc4)cccc23)cc1 | > 100 µM |
| CCOC1(OCC)C2C=CC1C(COS(=O)(=O)c1ccc(C)cc1)C2COS(=O)(=O)c1ccc(C)cc1 (configuration not stated) | > 100 µM |
| Cc1[nH]c(=O)nc2nc3ccc(Cl)cc3c(NCCNCCO)c12 | 27.9 µM |
| CC(C)(C)OC(=O)NC1CCCCC1NC(=O)C(=O)NC1CCCCC1NC(=O)OC(C)(C)C (configuration not stated) | > 100 µM |
| COc1cc(C2c3cc4c(cc3OC(N3CCCCC3)C2C)OCO4)cc(OC)c1O (configuration not stated) | > 53.8 µM |
| Cc1c(C)c2c(c(N)c1C#N)C(=O)N(NC(=O)c1ccccc1)C2=O | > 100 µM |
| CC(=O)OC(OC(C)=O)c1ccc2ccc3cccc4ccc1c2c34 | 91.7 µM |

tested on: T-47D breast; experiment: NCI anticancer screen, dose series, 48 h

| Compound | TGI |
| --- | --- |
| O=C1C=CC(=O)c2c1ccc1c3ccccc3n(CCCCCn3c4ccccc4c4ccc5c(c43)C(=O)C=CC5=O)c21 | 24.5 µM |
| C=C(Cl)C(=CCl)CCC(Br)C(C)(C)Cl (mixture of isomers) | > 10 µM |
| O=C1C2SC34c5c2c2ccccc2n5CCC3CCCN14 (configuration not stated) | > 100 µM |
| CC(=O)N(C(C)=O)c1ncc(-n2nc(-c3ccccc3)cc2-c2ccccc2)c(-c2ccccc2)n1 | > 10 µM |
| CN1C(=O)c2ccccc2OC12C=Cc1c(ccc3ccccc13)O2 (configuration not stated) | > 25.7 µM |
| CC(=O)Nc1sc(Br)cc1S(=O)(=O)c1ccc(Cl)cc1 | 68.5 µM |
| O=C1Sc2cc3ccccc3cc2C(=O)Sc2ccc(Br)cc21 | 23.8 µM |
| O=C(/C=C/c1ccccc1)Oc1cccc(O)c1 | > 100 µM |
| CC(C)NC(=O)OCc1c(COC(=O)NC(C)C)c(-c2cc[n+](COC(=O)C3CC3)cc2)n2c1CCC2 | > 100 µM |
| COC(=O)C1=C(C(=O)OC)N(c2ccc(OC)cc2[N+](=O)[O-])C(c2ccc(C)cc2)=CC1c1ccc(OC)cc1OC (configuration not stated) | > 93.3 µM |
| O=c1[nH]nnc2c1sc1ncccc12 | > 100 µM |
| Cc1ccc(C2SCC(=O)N2c2ccc(-n3c(-c4ccccc4)nc4ccccc4c3=O)cc2)cc1 (configuration not stated) | 67.3 µM |
| C/C=C/C(CC(O)(C(F)(F)F)C(F)(F)F)=N/NC(N)=S | > 10 µM |
| Fc1ccc2c(c1)nc1n2C(c2c(Cl)cccc2Cl)SC1 (configuration not stated) | 38.4 µM |
| CC(C)C1=CC23CCC4C(C)(C(=O)O)CCCC4(C)C2CC1C1C(=O)N(c2ccc(Cc4ccc(N5C(=O)C6C7CC8C9(C)CCCC(C)(C(=O)O)C9CCC8(C=C7C(C)C)C6C5=O)cc4)cc2)C(=O)C13 (configuration not stated) | 42.6 µM |
| NC(N)=NS(=O)(=O)c1ccc(NNc2c3ccccc3nc3c(C(=O)Nc4ccc(S(=O)(=O)Nc5ncccn5)cc4)cccc23)cc1 | > 100 µM |
| CCOC1(OCC)C2C=CC1C(COS(=O)(=O)c1ccc(C)cc1)C2COS(=O)(=O)c1ccc(C)cc1 (configuration not stated) | 85.1 µM |
| Cc1[nH]c(=O)nc2nc3ccc(Cl)cc3c(NCCNCCO)c12 | 23.1 µM |
| CC(C)(C)OC(=O)NC1CCCCC1NC(=O)C(=O)NC1CCCCC1NC(=O)OC(C)(C)C (configuration not stated) | > 100 µM |
| COc1cc(C2c3cc4c(cc3OC(N3CCCCC3)C2C)OCO4)cc(OC)c1O (configuration not stated) | > 60.2 µM |
| N#C[C@H](c1ccccn1)c1nc2ccccc2nc1Cl | > 100 µM |
| Cc1c(C)c2c(c(N)c1C#N)C(=O)N(NC(=O)c1ccccc1)C2=O | > 100 µM |
| O=C1COc2cccnc2N1CCCCO | > 100 µM |
| CC(=O)OC(OC(C)=O)c1ccc2ccc3cccc4ccc1c2c34 | 68 µM |

tested on: SF-539 CNS; experiment: NCI anticancer screen, dose series, 48 h

| Compound | TGI |
| --- | --- |
| O=C1C=CC(=O)c2c1ccc1c3ccccc3n(CCCCCn3c4ccccc4c4ccc5c(c43)C(=O)C=CC5=O)c21 | 33.9 µM |
| C=C(Cl)C(=CCl)CCC(Br)C(C)(C)Cl (mixture of isomers) | > 10 µM |
| O=C1C2SC34c5c2c2ccccc2n5CCC3CCCN14 (configuration not stated) | > 100 µM |
| CC(=O)N(C(C)=O)c1ncc(-n2nc(-c3ccccc3)cc2-c2ccccc2)c(-c2ccccc2)n1 | > 10 µM |
| CN1C(=O)c2ccccc2OC12C=Cc1c(ccc3ccccc13)O2 (configuration not stated) | 50.4 µM |
| CC(=O)Nc1sc(Br)cc1S(=O)(=O)c1ccc(Cl)cc1 | 40.6 µM |
| O=C1Sc2cc3ccccc3cc2C(=O)Sc2ccc(Br)cc21 | 27 µM |
| O=C(/C=C/c1ccccc1)Oc1cccc(O)c1 | > 100 µM |
| CC(C)NC(=O)OCc1c(COC(=O)NC(C)C)c(-c2cc[n+](COC(=O)C3CC3)cc2)n2c1CCC2 | > 100 µM |
| COC(=O)C1=C(C(=O)OC)N(c2ccc(OC)cc2[N+](=O)[O-])C(c2ccc(C)cc2)=CC1c1ccc(OC)cc1OC (configuration not stated) | 20.8 µM |
| O=c1[nH]nnc2c1sc1ncccc12 | > 100 µM |

Source: PubChem BioAssay (NCI)
